Experimental data published in patent publication US20120231482A1, “METHOD, KIT OR DIAGNOSTIC FOR THE DETECTION OF REAGENTS WHICH INDUCE ALTERED CONTRACTILITY” (THE JOHNS HOPKINS UNIVERSITY, priority 2009, published 2012).
Marks after values point to notes of the source that are not given here.

What was measured:
[1] = molecular target: T1, tropomyosin (α) (Rattus norvegicus, UniProt P04692); assay: Modified biotin switch assay, sites of HNO modification; assay type: biochemical
T1 construct: Rat myofibrillar preparations, as described in [7], were obtained from frozen ventricles (Pel Freez Biologicals); tissue Pel Freez Biologicals; host or cells: myofibrils from frozen rat ventricles
T1 sequence (P04692 whole entry): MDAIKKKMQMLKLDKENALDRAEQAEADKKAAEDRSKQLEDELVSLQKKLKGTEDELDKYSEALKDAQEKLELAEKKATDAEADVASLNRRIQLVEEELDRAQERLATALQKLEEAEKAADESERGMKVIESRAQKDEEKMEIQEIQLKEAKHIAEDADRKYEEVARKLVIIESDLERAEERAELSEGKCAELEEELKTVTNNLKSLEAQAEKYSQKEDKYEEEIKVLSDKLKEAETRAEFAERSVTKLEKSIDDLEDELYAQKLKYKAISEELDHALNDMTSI
Procedure: (§1) Rat myofibrillar preparations, as described in [7], were obtained from frozen ventricles (Pel Freez Biologicals) minced in 20 volumes/tissue weight of 4° C. relax buffer (SRB (75 mM KCL, 10 mM imidazole pH 7.2, 2 mM MgCl2) plus 4 mM phosphocreatine, 1 mM ATP, 50 mM BDM, 1 mM benzamidine-HCL, 0.1 mM PMSF, 1 μg/ml leupeptin, 1 μg/ml pepstatin, 1% (v/v) Trixon X-100) and adjusted to 10 mM EDTA. Minced preparations were centrifuged for 8 min at 3000xg and the supernant was decanted. Resulting pellets were resuspended in 10 volumes of SRB plus 1% Triton X-100 and subjected to 6 strokes in a Duall tissue homogenizer and centrifuged as above. Pellets were gently resuspended and centrifuged as above twice more in SRB including 1% (v/v) Triton X-100, twice in SRB lacking Triton X-100 and once in K-60 buffer (60 mM KCL, 20 mM MOPS, 2 mM MgCl2 pH 7) before being resuspended in 5 volumes of K-60.
(§2) Detection of HNO modifications by Modified Biotin Switch. HNO modified thiols were detected using a modification to the standard biotin switch protocol. In brief, 100 μg of rat myofibrils/treatment were diluted to 0.5 μg/μl in HEN (250 mM HEPES pH 7.7, 1 mM EDTA and 0.1 mM neocuproine) including 0.1% (w/v) SDS and exposed to a treatment for 10 min at 37° C. which was subsequently removed by acetone precipitation. Remaining free thiols were blocked by addition of 300 μl of HEN including 2.5% (w/v) SDS and 20 mM N-ethylmaleimide (NEM), incubated for 20 min at 50° C. Excess NEM was removed by acetone precipitation. HNO and/or NO modified thiols were reduced using 5 mM DTT or 1 mM ascorbate in 150 μl of HEN including 1% (w/v) SDS and biotinylated with 0.8 mM Biotin-HPDP (Pierce) for one hour at room temperature. Excess biotin-HPDP was removed by acetone precipitation (2 volumes) and resultant pellets were carefully washed with an additional volume of acetone. Biotinylated proteins were resuspended in 1 ml of HEN including 0.1% (w/v) SDS and captured by incubation with 15 μl of washed, packed Ultralink Immobilized Streptavidin (Pierce) for one hour at room temperature. Beads were washed four times in 50 bead volumes of HEN (twice including 0.1% (w/v) SDS, twice including 600 mM NaCl) and twice with EB (20 mM HEPES pH 7.7, 100 mM NaCl, 1 mM EDTA). Captured proteins were eluted with 40 μl of EB containing 100 mM DTT, mixed with 15 μl of 4×LDS sample buffer, boiled, separated by SDS PAGE and silver stained. For MS studies, biotinylated proteins were digested overnight with trypsin (Promega) prior to capture and washed ten additional times with 5 mM ammonium bicarbonate/20% acetonitrile before being eluted in 100 μl of wash buffer including 100 mM DTT as described. Captured peptides were identified using a LTQ linear ion trap tandem mass spectrometer (ThermoFinnigan, Waltham Mass. USA) with data searched against the rat IPI primary sequence database using the sorcerer searching platform (sagen).
(§3) To investigate the modifications that underlie the difference seen in the functional effect of these two compounds we performed an analysis on the myofilament proteins, using a modified biotin-switch method, followed by mass spectrometry for identification (FIG. 3). Following treatment with HNO or control compounds, unmodified cysteines are blocked with NEM before treatment with a reducing agent and labeling the exposed cysteines with a biotin group (FIG. 3A). In this case, 5 mM DTT was used as the reducing agent because it was shown in the physiological studies to reverse the effect of the treatment. […] Tryptic or chymotryptic peptides containing the modified cysteine residues were captured and identified by LC/MS/MS. […] To parse the role of candidate sites of modification between these two effects a comparative proteomics experiment was designed where modifications specific to NCA treatment would be considered candidates for the Ca^2+ effect while sites identified in common between AS and NCA could be candidates for the force effect (FIG. 3C). […]

[2] = molecular target: T2, myosin heavy chain β (Rattus norvegicus, UniProt P02564); assay: as above; assay type: biochemical
T2 construct: Rat myofibrillar preparations, as described in [7], were obtained from frozen ventricles (Pel Freez Biologicals); tissue Pel Freez Biologicals; host or cells: myofibrils from frozen rat ventricles
T2 sequence (P02564 whole entry): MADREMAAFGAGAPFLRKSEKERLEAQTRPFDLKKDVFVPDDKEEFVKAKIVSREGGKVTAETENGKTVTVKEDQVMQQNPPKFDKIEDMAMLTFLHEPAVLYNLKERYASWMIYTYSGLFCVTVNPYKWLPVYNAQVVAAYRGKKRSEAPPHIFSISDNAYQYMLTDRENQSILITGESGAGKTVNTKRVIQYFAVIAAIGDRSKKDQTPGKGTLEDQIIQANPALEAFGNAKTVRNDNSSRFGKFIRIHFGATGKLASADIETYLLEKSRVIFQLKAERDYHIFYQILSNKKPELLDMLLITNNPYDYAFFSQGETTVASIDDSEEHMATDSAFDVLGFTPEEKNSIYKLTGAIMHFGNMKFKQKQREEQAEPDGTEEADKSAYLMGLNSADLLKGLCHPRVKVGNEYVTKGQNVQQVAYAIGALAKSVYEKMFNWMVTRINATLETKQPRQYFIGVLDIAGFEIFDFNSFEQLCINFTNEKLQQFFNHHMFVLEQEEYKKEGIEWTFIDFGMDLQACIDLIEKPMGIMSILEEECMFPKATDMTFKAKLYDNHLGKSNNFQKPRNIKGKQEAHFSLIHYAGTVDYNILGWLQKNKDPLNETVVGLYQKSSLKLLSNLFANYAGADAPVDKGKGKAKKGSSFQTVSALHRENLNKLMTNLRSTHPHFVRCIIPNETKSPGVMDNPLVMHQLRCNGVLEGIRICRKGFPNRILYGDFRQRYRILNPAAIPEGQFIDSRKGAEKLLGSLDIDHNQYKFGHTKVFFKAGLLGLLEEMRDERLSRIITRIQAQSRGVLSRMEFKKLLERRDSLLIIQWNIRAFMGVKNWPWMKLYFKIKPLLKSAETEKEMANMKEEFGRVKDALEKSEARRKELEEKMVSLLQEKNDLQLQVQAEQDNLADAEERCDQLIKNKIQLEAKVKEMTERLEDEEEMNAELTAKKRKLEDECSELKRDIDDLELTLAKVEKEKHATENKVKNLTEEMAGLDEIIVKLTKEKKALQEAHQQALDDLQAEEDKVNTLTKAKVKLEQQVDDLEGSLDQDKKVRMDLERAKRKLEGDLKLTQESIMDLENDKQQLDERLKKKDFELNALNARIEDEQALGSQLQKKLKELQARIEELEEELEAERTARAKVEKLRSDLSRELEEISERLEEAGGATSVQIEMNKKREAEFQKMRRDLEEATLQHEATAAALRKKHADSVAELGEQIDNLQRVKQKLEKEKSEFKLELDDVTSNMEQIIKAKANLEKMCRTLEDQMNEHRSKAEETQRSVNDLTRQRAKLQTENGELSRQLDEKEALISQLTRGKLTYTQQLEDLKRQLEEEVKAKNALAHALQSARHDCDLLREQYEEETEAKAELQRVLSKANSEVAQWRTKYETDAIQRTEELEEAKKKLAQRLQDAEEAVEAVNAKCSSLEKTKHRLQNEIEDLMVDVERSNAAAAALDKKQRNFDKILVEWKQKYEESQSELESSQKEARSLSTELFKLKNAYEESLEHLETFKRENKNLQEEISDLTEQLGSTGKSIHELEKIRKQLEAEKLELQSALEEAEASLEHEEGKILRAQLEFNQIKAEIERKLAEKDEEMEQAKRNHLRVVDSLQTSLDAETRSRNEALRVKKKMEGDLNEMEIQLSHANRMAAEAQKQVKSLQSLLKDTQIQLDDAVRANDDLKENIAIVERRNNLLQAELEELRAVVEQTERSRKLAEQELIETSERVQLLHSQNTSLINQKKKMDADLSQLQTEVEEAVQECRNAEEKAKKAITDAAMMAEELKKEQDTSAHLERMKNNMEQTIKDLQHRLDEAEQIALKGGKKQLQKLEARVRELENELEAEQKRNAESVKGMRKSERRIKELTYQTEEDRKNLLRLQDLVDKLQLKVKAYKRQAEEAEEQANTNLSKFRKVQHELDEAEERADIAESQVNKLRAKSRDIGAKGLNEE
Procedure: as §1, §2, §3

CC(=O)OC1(N=O)CCCCC1 [NCA, 1-nitrosocyclohexylacetate]
number of independent observations of peptide ([1]; Cys 190, tryptic peptide CLELEEELKTVTNNLK, 25 μM NCA or 500 μM AS): 3^a
Position of modified Cys ([1]; α-tropomyosin, Table 2): 190
number of independent observations of peptide ([2]; Cys 947, tryptic peptide KLEDECELKR, 25 μM NCA or 500 μM AS): 3
Position of modified Cys ([2]; myosin heavy chain (β), Table 2): 947(β)*
